“And” between values parts separate entries of the source, which are not always exact repeats. Identical values can stand only once. Like-named read-outs stand apart in the source and are kept apart here.
How the values were obtained:
[1] = test system: cAMP response element luciferase activity in human U937 monocytic cells; experiment: Potentiation of forskolin-induced CRE-luciferase activity in U937 cells; assay type: cell-based; details: U-937, U937 cells co-incubated with 10 μM forskolin, 4 hours, X marks this range
Experimental: Compounds of the present invention were thereby shown to provide potentiated luciferase expression in U937 cells treated with the adenylyl cyclase activator forskolin.
Human pro-monocytic U937 cells were maintained in RPMI medium containing 10% FCS and 2 mM […]. U937 cells were transiently transfected as described in Biotechniques Vol. 17(6):1058, 1994. Briefly, cells were grown in medium containing serum to a density of 5×10^6 cells/mL and then resuspended in media containing serum at a density of approximately 1×10^7 cells/mL. 400 μL of cells were transferred into the electroporation cuvette containing 10 μg of the reporter vector (PCRE-luc) in a volume of 40 μL H2O. Reporter vector DNA was prepared from DH5α E. coli using the DNA […] free kit (Qiagen) as per manufacturers instructions. U937 cells were clectroporated at room temperature using a BIORAD electroporator. Capacitance was set to 1050 μF and voltage was 280V. The time constant was noted after each electroporation. Cells were then diluted in 4 mL of media and serum and 200 μL of cells were plated per well. Cells were allowed to recover for 16-18 hours. Cells were then treated with a test compound or vehicle in the presence or absence of 10 μM forskolin for 4 hours at 37° C.
The luciferase assay was performed as per manufacturers instructions (Tropix). Briefly, cells were centrifuged for 4 minutes at 1200 rpm and media supernatant was removed. Cell pellets were lysed in 15 μL Lysis buffer (Tropix). Luciferase assay was performed using 10 μL of cell lysate with 10 μL of buffer A and 25 μL buffer B. Luciferase activity was obtained using a luminometer with a 5-second delay followed by a read time of 10 seconds.

[2] = target: T1, cAMP phosphodiesterase 3 from human platelets (Homo sapiens, UniProt Q14432); experiment: Inhibition of cAMP phosphodiesterase 3 from human platelets; assay type: biochemical; details: for IC50: PDE3, platelet cell extract, X marks this range
T1 construct: from tissue; host or cells: human platelets, cytoplasmic extract
Description: Compound 12 was screened for activity against 5 of the major classes of mammalian cyclic nucleotide phosphodiesterase (termed PDE 1 through 5). PDE's 1 through 4 utilize cAMP as substrate while PDE 5 uses cGMP. The broad specificity PDE inhibitor 3-isobutyl-1-methylxanthine (IBMX; Sigma; Catalogue No. 17018)) was used as a positive control in all assays. PDE's for the various assays were partially purified from the following cells/tissues; PDE 1 (bovine heart), PDE 2 (human platelets), PDE 3 (human platelets), PDE 4 (human promonocytic U937 cells) and PDE 5 (human platelets).
Platelet cell extracts were prepared as described above for the U937 cells. The PDE3 assay was performed using platelet cell extract as described above for the PDE 4 assay. Platelets contain PDE 2, 3 and 5. However PDE2 and 5 preferentially utilize cGMP, so in an assay with cAMP as a substrate they are not detected.

[3] = test system: High Affinity Rolipram Binding Site of PDE4 in Mouse Brain; experiment: Displacement of [3H]-rolipram from its high affinity binding site (HARBS); details: ratio of IC50 for PDE4 catalytic activity to concentration displacing 50% of rolipram from HARBS
Experimental: Suspension was centrifuged twice at 30,000×G at 4° C. and the supernatant discarded. The pellet was resuspended in buffer, and adjusted to a protein concentration of 0.5 mg/mL. Drugs to be tested were dissolved in DMSO and pipetted in triplicate into a 96 well microplate at concentrations ranging from 1 to 30,000 nM. […] The plate was incubated at 4° C. for 1 hour. Contents of the plate were aspirated through a Whatman GF/C filterplate, and rinsed with 4×200 μL ice-cold buffer. […] Triplicate determinations were performed at each concentration.

[4] = test system: TNBS-induced colitis in the rat; experiment: TNBS-induced colitis model of inflammatory bowel disease in the rat;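 further: rat colitis induced by intracolonic TNBS in 50% ethanol, distal colon assessed at sacrifice on day 7, with saline-instilled vehicle-treated rats as controls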
Experimental: Colitis was induced by intracolonic instillation of the hapten TNBS (60 mg/mL) in 0.5 mL of 50% ethanol. […] An additional group of rats received saline intracolonically in place of TNBS/ethanol and was treated with vehicle at the same times as outlined above. Body weights were recorded at the beginning of the study and at days 2 and 7.
The rats were sacrificed on the 7th day after the induction of colitis and the extent of damage and inflammation was assessed. After the rats were sacrificed, the distal colon was removed and pinned out on a wax platform. The presence or absence of diarrhea was noted, as well as the presence and severity of adhesions between the colon and other organs, and the severity and extent of colonic damage. […] After scoring, a sample of colonic tissue was excised for measurement of myeloperoxidase activity as an index of granulocyte infiltration (see Wallace et al., Gastroenterology 117: in press, 1999; and Morris et al., Gastroenterology 96:795-803, 1989). This tissue sample was 1 cm long (along the axis of the colon) and 5 mm wide and was taken from a region of macroscopically visible damage (or the corresponding region in any rats in which there was no damage). The remainder of the tissue was fixed in neutral buffered formalin and processed by routine methods for subsequent evaluation by light microscopy. In a blinded manner, the sample of colonic tissue from each rat was examined for evidence of mucosal ulceration and inflammation. The percentage of the luminal surface of the section in which ulceration was present was calculated.

[5] = 100 mg/kg intracolonically at 12 h intervals for one week
[6] = 100 mg/kg intracolonically at 12 h intervals for one week, day 7

T1 sequence (Q14432 whole entry): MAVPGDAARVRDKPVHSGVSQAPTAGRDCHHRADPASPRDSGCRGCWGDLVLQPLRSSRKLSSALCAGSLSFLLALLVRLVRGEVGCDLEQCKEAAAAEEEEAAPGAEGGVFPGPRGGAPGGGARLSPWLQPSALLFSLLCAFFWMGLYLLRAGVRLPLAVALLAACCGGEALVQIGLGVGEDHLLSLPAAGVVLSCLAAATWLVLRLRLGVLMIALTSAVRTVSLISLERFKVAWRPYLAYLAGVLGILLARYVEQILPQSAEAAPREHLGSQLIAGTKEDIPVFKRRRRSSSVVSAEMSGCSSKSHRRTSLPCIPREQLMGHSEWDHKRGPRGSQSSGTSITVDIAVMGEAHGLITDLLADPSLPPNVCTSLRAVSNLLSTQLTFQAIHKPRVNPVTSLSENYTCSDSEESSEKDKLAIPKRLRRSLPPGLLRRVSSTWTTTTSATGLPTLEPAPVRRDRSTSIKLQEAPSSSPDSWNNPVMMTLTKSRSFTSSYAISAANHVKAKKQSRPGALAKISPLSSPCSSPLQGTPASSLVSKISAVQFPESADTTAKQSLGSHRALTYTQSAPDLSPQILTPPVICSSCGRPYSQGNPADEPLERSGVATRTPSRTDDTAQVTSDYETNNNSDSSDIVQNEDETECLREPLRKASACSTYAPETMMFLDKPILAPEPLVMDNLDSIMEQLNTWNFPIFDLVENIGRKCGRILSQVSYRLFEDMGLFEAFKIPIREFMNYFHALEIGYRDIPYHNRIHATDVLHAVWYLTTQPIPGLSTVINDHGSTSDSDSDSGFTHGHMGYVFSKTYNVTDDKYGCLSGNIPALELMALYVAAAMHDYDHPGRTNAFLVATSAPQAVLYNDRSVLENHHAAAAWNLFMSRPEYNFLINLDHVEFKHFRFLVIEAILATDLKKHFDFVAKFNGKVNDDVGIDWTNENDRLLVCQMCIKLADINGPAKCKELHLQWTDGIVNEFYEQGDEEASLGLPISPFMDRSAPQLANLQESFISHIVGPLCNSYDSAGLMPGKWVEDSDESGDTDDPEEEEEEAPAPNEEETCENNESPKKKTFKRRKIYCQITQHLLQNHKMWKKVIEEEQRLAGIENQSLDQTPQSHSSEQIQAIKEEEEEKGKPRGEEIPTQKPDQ

Compound | IC50 [2] | PDE4:HARBS [3] | further results
COc1ccc([C@@H]2CCC(=O)OC2)cc1OCC1CCCCC1 [Compound 158] | > 100 µM | <1 | EC50 ([1]; read-out: EC50 range (μM) 0.1-1): 0.1 to 1 µM
COc1ccc(N)cc1CC1C[C@@H](c2ccc(OC)c(OC3CCCC3)c2)COC1=O (stereo partly drawn) [Compound 186] |  | >1 | 
COc1ccc([C@H]2COC(=O)C(Cc3ccc(C)c([N+](=O)[O-])c3)C2)cc1OC1CCCC1 (stereo partly drawn) [Compound 176] |  | >1 | 
COc1cc2c(cc1OC)-c1c/c(=N\c3c(C)cc(C)cc3C)n(C)c(=O)n1CC2 [trequinsin, reference compound] |  |  | effect in PDE3 assay ([2]; platelet cell extract, cAMP as substrate): potent inhibitor
COc1ccc([C@H]2COC(=O)C(Cc3cccc(OCc4ccccc4)c3)C2)cc1OC1CCCC1 (stereo partly drawn) [Compound 172] |  | <1 | 
COc1ccc([C@H]2COC(=O)C(Cc3ccc(N)cc3)C2)cc1OC1CCCC1 (stereo partly drawn) [Compound 185] |  | >1 | 
COc1ccc([C@H]2COC(=O)C(Cc3ccc4c(c3)OCO4)C2)cc1OC1CCCC1 (stereo partly drawn) [Compound 171] |  | <1 | 
COc1ccc(CC2C[C@@H](c3ccc(OC)c(OC4CCCC4)c3)COC2=O)cc1O (stereo partly drawn) [Compound 180] |  | >1 | 
CCCCCCOc1cc([C@@H]2CCC(=O)OC2)ccc1OC [Compound 160] | > 100 µM | <1 | EC50 ([1]; read-out: EC50 range (μM) 1-25): 1 to 25 µM
COc1ccc([C@H]2COC(=O)C(Cc3ccc(O)cc3)C2)cc1OC1CCCC1 (stereo partly drawn) [Compound 183] |  | <1 | 
COc1ccc([C@H]2COC(=O)C(Cc3cccc(O)c3)C2)cc1OC1CCCC1 (stereo partly drawn) [Compound 182] |  | <1 | 
COc1ccc([C@H]2COC(=O)C(Cc3cccc(C(F)(F)F)c3)C2)cc1OC1CCCC1 (stereo partly drawn) [Compound 169] |  | <1 | 
C=CCC1C[C@@H](c2ccc(OC)c(OC3CCCC3)c2)COC1=O (stereo partly drawn) [Compound 96] | > 100 µM |  | 
CCCCCCCOc1cc([C@@H]2CCC(=O)OC2)ccc1OC [Compound 161] | > 100 µM | <1 | EC50 ([1]; read-out: EC50 range (μM) >25): > 25 µM
Nc1ccc(O)c(C(=O)O)c1 [Compound 5-ASA, 5-aminosalicylic acid] |  |  | Body Weight Change (%) [4, 5]: −20.2 ± 3.4%; Mortality [4, 5]: 0/8; Adhesion (Incidence) [4, 6]: (7/8); Adhesion Score [4, 6]: 1.4 ± 0.3; Bowel Thickness (mm) [4, 6]: 2.66 ± 0.69 mm; Damage Score [4, 6]: 6.3 ± 0.8; Global Colitis Score [4, 6]: 10.41 ± 1.58; loss of body weight ([4]; 100 mg/kg, one-week study): ~20%; MPO Activity (U/mg) ([4]; colonic tissue, 100 mg/kg intracolonically at 12 h intervals for one week, day 7): 67.5 ± 8.8 U/mg; Diarrhea ([4]; incidence, 100 mg/kg intracolonically at 12 h intervals for one week, day 7, 100 mg/kg): significantly reduce and 1/8; Histology Score ([4]; percentage of luminal surface ulcerated, 100 mg/kg intracolonically for one week, day 7): 91.4 ± 5.9
COc1ccc([C@H]2COC(=O)C(Cc3ccc(O)c(N)c3)C2)cc1Cc1ccccc1 (stereo partly drawn) [Compound 114] | > 100 µM |  | 
CCCCCOc1cc([C@@H]2CCC(=O)OC2)ccc1OC [Compound 159] | > 100 µM | >1 | EC50 ([1]; read-out: EC50 range (μM) >25): > 25 µM
COc1ccc([C@H]2COC(=O)C(Cc3ccc(C)c(N)c3)C2)cc1OC1CCCC1 (stereo partly drawn) [Compound 187] |  | >1 | 
CCCCCCCCOc1cc([C@@H]2CCC(=O)OC2)ccc1OC [Compound 162] | > 100 µM |  | EC50 ([1]; read-out: EC50 range (μM) >25): > 25 µM
COc1ccc([C@H]2COC(=O)C(C)C2)cc1OC1CCCC1 (stereo partly drawn) [Compound 95] | > 100 µM |  | 
